Source: patent publication US20230013669A1, “Antibacterial Treatment Using a Cannabinoid and an Active Agent” (priority 2019, published 2023)
Values joined by “and” are separate entries in the source; they are usually repeats but may differ in a detail not shown here. Equal values may be shown once. Read-outs that look alike come from different tables or passages of the source.

Legend:
[1] = test system: Klebsiella pneumoniae ATCC 13883 (GN_003 / GN_004); assay: Synergy of cannabidiol with cell-wall disrupting agent (CBD MIC in combination, FICI); format: cell-based; settings: for FICI: calculated using MIC of 256 μg/mL for cannabidiol; for MIC: Klebsiella pneumoniae
Method: (§1) The compounds were stored short term at 4° C.
(§2) Analysis was performed using Microsoft Excel.

[2] = test system: Escherichia coli HS71 (GN_110), CTX-M; assay: as above; format: cell-based; settings: for MIC: Escherichia coli
Method: as §1, §2

SMILES: C=C(C)C1CCC(C)=CC1c1c(O)cc(CCCCC)cc1O (stereo not shown) [Cannabidiol, 2-[3-methyl-6-(1-methylethenyl)-2-cyclohexen-1-yl]-5-pentyl-1,3-benzenediol]
- activity of cannabidiol combined with colistin ([1]; Example 14): effective
- activity of cannabidiol combined with octapeptin MCC_006442 ([1]; Example 15): effective
- activity of cannabidiol combined with ceftazidime ([1]; Example 16): effective
- activity of cannabidiol combined with cefotetan ([1]; Example 17): effective
- activity of cannabidiol combined with aztreonam ([1]; Example 18): effective
- activity of cannabidiol combined with octapeptin C4 ([1]; Example 21): effective
- activity of cannabidiol in combination with Spero Potentiator SPR741 ([1]; Example 22): effective
- activity of cannabidiol in combination with octapeptin FADDI-287 ([1]; Example 23): effective
- activity of cannabidiol in combination with MCC_8980 ([1]; Example 24): effective
- FICI range ([1]; Klebsiella pneumoniae ATCC 700603 (so in the source), CBD with FADDI-287, MIC table (Table 95)): 0.16-4
- FICI range ([1]; Klebsiella pneumoniae ATCC 700603 (so in the source), CBD with FADDI-287, Synergy table (Table 97)): 0.16-0.5
- FICI range ([1]; Klebsiella pneumoniae ATCC 700603 (so in the source), CBD with MCC_8980, MIC table (Table 99), listed as CBD): 0.31-1.13 and 0.38-1.13
- FICI range ([1]; Klebsiella pneumoniae ATCC 700603 (so in the source), CBD with MCC_8980, Synergy table (Table 101), listed as CBD): 0.31 and 0.38
- FICI range ([1]; Klebsiella pneumoniae ATCC 700603 (so in the source), CBD with Spero Potentiator SPR741, MIC table (Table 91), listed as CBD): 0.08-1.03 and 0.09-1.03 and 0.16-1.06 and 0.14-1.06
- FICI range ([1]; Klebsiella pneumoniae ATCC 700603 (so in the source), CBD with Spero Potentiator SPR741, Synergy table (Table 93), listed as CBD): 0.08-0.27 and 0.09-0.27 and 0.16-0.27 and 0.14-0.26
- CBD MIC with MCC_8980 ([1]; Klebsiella pneumoniae ATCC 700603 (so in the source), MCC_8980 at 16 μg/mL, listed as CBD): 32 µg/mL
- CBD MIC with Spero Potentiator SPR741 ([1]; Klebsiella pneumoniae ATCC 700603 (so in the source), SPR741 at 8 μg/mL, listed as CBD): 4 µg/mL and 8 µg/mL
- FICI ([1]; Klebsiella pneumoniae ATCC 700603 (so in the source), cannabidiol with FADDI-287 at 0.25 μg/mL): 0.2539
- FICI ([1]; Klebsiella pneumoniae ATCC 700603 (so in the source), cannabidiol with FADDI-287 at 0.5 μg/mL): 0.5
- FICI ([1]; Klebsiella pneumoniae ATCC 700603 (so in the source), cannabidiol with FADDI-287 at 1 μg/mL): 1
- FICI ([1]; Klebsiella pneumoniae ATCC 700603 (so in the source), cannabidiol with FADDI-287 at 2 μg/mL): 2
- FICI ([1]; Klebsiella pneumoniae ATCC 700603 (so in the source), cannabidiol with FADDI-287 at 4 μg/mL): 4
- FICI ([1]; Klebsiella pneumoniae ATCC 700603 (so in the source), cannabidiol with MCC_8980 at 1 μg/mL): 1.016
- FICI ([1]; Klebsiella pneumoniae ATCC 700603 (so in the source), cannabidiol with MCC_8980 at 2 μg/mL): 1.031
- FICI ([1]; Klebsiella pneumoniae ATCC 700603 (so in the source), cannabidiol with MCC_8980 at 4 μg/mL): 1.0625
- FICI ([1]; Klebsiella pneumoniae ATCC 700603 (so in the source), cannabidiol with MCC_8980 at 8 μg/mL): 1.125
- FICI ([1]; Klebsiella pneumoniae ATCC 700603 (so in the source), cannabidiol with MCC_8980 at 16 μg/mL): 0.375 and 0.3125
- FICI ([1]; Klebsiella pneumoniae ATCC 700603 (so in the source), cannabidiol with SPR741 at 0.5 μg/mL): 1.004
- FICI ([1]; Klebsiella pneumoniae ATCC 700603 (so in the source), cannabidiol with SPR741 at 1 μg/mL): 1.016
- FICI ([1]; Klebsiella pneumoniae ATCC 700603 (so in the source), cannabidiol with SPR741 at 2 μg/mL): 1.031
- FICI ([1]; Klebsiella pneumoniae ATCC 700603 (so in the source), cannabidiol with SPR741 at 2 μg/mL, listed as cannabidiol): 1.016
- FICI ([1]; Klebsiella pneumoniae ATCC 700603 (so in the source), cannabidiol with SPR741 at 4 μg/mL): 1.031 and 1.0625
- FICI ([1]; Klebsiella pneumoniae ATCC 700603 (so in the source), cannabidiol with SPR741 at 8 μg/mL): 0.09375 and 0.1406 and 0.07812
- MIC ([1]; ATCC13883, read-out: CBD MIC with octapeptin MCC_006442 at concentration 2 μg/mL, Example 4, GN_003): 1 µg/mL
- MIC ([1]; ATCC13883, read-out: CBD MIC with octapeptin MCC_006442 at concentration 4 μg/mL, Example 4, GN_003): 0.25 µg/mL
- MIC ([1]; ATCC 13883 / ATCC 700603, Klebsiella pneumoniae ATCC 700603 (so in the source), FADDI-287 at 0.25 μg/mL, read-out: CBD MIC with FADDI-287): 1 µg/mL
- MIC ([1]; ATCC 13883 / ATCC 700603, Klebsiella pneumoniae ATCC 700603 (so in the source), FADDI-287 at 0.5 μg/mL, read-out: CBD MIC with FADDI-287): 0.001 µg/mL
- MIC ([1]; ATCC 13883 / ATCC 700603, Klebsiella pneumoniae ATCC 700603 (so in the source), FADDI-287 at 1 μg/mL, read-out: CBD MIC with FADDI-287): 0.001 µg/mL
- MIC ([1]; ATCC 13883 / ATCC 700603, Klebsiella pneumoniae ATCC 700603 (so in the source), FADDI-287 at 2 μg/mL, read-out: CBD MIC with FADDI-287): 0.001 µg/mL
- MIC ([1]; ATCC 13883 / ATCC 700603, Klebsiella pneumoniae ATCC 700603 (so in the source), FADDI-287 at 4 μg/mL, read-out: CBD MIC with FADDI-287): 0.001 µg/mL
- MIC ([1]; ATCC 13883 / ATCC 700603, Klebsiella pneumoniae ATCC 700603 (so in the source), MCC_8980 at 16 μg/mL, read-out: CBD MIC with MCC_8980): 16 µg/mL
- MIC ([1]; ATCC 13883 / ATCC 700603, Klebsiella pneumoniae ATCC 700603 (so in the source), Spero SPR206 at 0.007 μg/mL, read-out: CBD MIC with Spero SPR206): ≥ 32 µg/mL
- MIC ([1]; ATCC 13883 / ATCC 700603, Klebsiella pneumoniae ATCC 700603 (so in the source), Spero SPR206 at 0.015 μg/mL, read-out: CBD MIC with Spero SPR206): ≥ 32 µg/mL
- MIC ([1]; ATCC 13883 / ATCC 700603, Klebsiella pneumoniae ATCC 700603 (so in the source), Spero SPR206 at 0.031 μg/mL, read-out: CBD MIC with Spero SPR206): ≥ 32 µg/mL
- MIC ([1]; ATCC 13883 / ATCC 700603, Klebsiella pneumoniae ATCC 700603 (so in the source), Spero SPR206 at 0.062 μg/mL, read-out: CBD MIC with Spero SPR206): ≥ 32 µg/mL
- MIC ([1]; ATCC 13883 / ATCC 700603, Klebsiella pneumoniae ATCC 700603 (so in the source), Spero SPR206 at 4 μg/mL, read-out: CBD MIC with Spero SPR206): 0.001 µg/mL
- MIC ([1]; ATCC 13883 / ATCC 700603, MCC_6442 at 2 μg/mL, Klebsiella pneumoniae ATCC 700603, read-out: CBD MIC with MCC_6442): 1 µg/mL
- MIC ([1]; ATCC 13883 / ATCC 700603, MCC_6442 at 4 μg/mL, Klebsiella pneumoniae ATCC 700603, read-out: CBD MIC with MCC_6442): 0.25 µg/mL
- MIC ([1]; ATCC13883 / ATCC700603, read-out: CBD MIC with FADDI-287, Klebsiella pneumoniae ATCC 700603 (so in the source), FADDI-287 at […]): 8 µg/mL
- MIC ([2]; read-out: CBD MIC with MCC_09222 at concentration 2 μg/mL, Example 9, GN_110): 4 µg/mL
- MIC ([2]; read-out: CBD MIC with MCC_09222 at concentration 4 μg/mL, Example 9, GN_110): 1 µg/mL
- MIC ([2]; read-out: CBD MIC with MCC_09222 at concentration 8 μg/mL, Example 9, GN_110): 1 µg/mL
- MIC ([2]; read-out: CBD MIC with MCC_09222 at concentration 16 μg/mL, Example 9, GN_110): 0.5 µg/mL
- MIC ([2]; read-out: CBD MIC with MCC_09222 at concentration 32 μg/mL, Example 9, GN_110): 0.000977 µg/mL
- MIC ([2]; read-out: CBD MIC with MCC_09222 at concentration 64 μg/mL, Example 9, GN_110): 0.000977 µg/mL
- MIC ([2]; read-out: CBD MIC with MCC_09222 at concentration 128 μg/mL, Example 9, GN_110): 0.000977 µg/mL
- cannabidiol in combination with MCC_09222: synergy ([2]; Example 9): synergistic effect
- CBD MIC with MCC_09222 at concentration 16 μg/mL ([2]; Example 9, GN_110, listed as CBD): 1 µg/mL
